Test results as given in PubChem BioAssay AID330 (DTP/NCI, 2004).
Where “and” joins values, the source holds several entries; their conditions need not be identical. Identical values can stand only once. Toxic doses and inconclusive results are not listed. How the source made its calls: active means survival T/C of 150% or more; inactive means T/C below 125% in these data.

System: P388 leukemia ip, CD2F1 mice, survival T/C
Assay: NCI In Vivo Anticancer Drug Screen. Data for tumor model P388 Leukemia (intraperitoneal) in CD2F1 (CDF1) mice
Conditions: endpoint: median survival time, higher = longer survival
How it was run: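 Mice carrying the transplanted tumor received test compound or vehicle. Survival was recorded in each group, and the value is the treated-group measurement divided by that of the vehicle-treated control group.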

[1] = dose: 50.0 mg/kg/injection, schedule: Q01DX009 (ip), vehicle: saline with Tween-80
[2] = dose: 100.0 mg/kg/injection, schedule: Q01DX009 (ip), vehicle: saline with Tween-80
[3] = dose: 200.0 mg/kg/injection, schedule: Q01DX009 (ip), vehicle: saline with Tween-80
[4] = dose: 100.0 mg/kg/injection, schedule: Q01DX005 (ip), vehicle: saline with Tween-80
[5] = dose: 200.0 mg/kg/injection, schedule: Q01DX005 (ip), vehicle: saline with Tween-80
[6] = dose: 50.0 mg/kg/injection, schedule: Q01DX005 (ip), vehicle: saline with Tween-80

Measured: T/C

CCOC(=O)N1CCN(CCCCCOc2ccccc2C2CCCCC2)CC1
inactive: [1] 110 % of control | [2] 108 % of control | [3] 124 % of control | dose: 400.0 mg/kg/injection, schedule: Q01DX009 (ip), vehicle: saline with Tween-80 115 % of control

Nc1nc(-c2cc(Cl)cc(Cl)c2)cc(-c2cc(-c3cc(Cl)cc(Cl)c3)nc(N)n2)n1
inactive: dose: 60.0 mg/kg/injection, schedule: Q01DX005 (ip), vehicle: saline with Tween-80 100 % of control | dose: 120.0 mg/kg/injection, schedule: Q01DX005 (ip), vehicle: saline with Tween-80 106 % of control | dose: 240.0 mg/kg/injection, schedule: Q01DX005 (ip), vehicle: saline with Tween-80 96 % of control

COC(=O)/C=C(\NC1CC(OC2C[C@](O)(C(C)=O)Cc3c(O)c4c(c(O)c32)C(=O)c2c(OC)cccc2C4=O)OC(C)C1O)C(=O)OC (stereo not given in full)
inactive: dose: 6.25 mg/kg/injection, schedule: Q04DX003 (ip), vehicle: saline with Tween-80 104 % of control | dose: 12.5 mg/kg/injection, schedule: Q04DX003 (ip), vehicle: saline with Tween-80 105 % of control and 115 % of control | dose: 25.0 mg/kg/injection, schedule: Q04DX003 (ip), vehicle: saline with Tween-80 121 % of control | dose: 100.0 mg/kg/injection, schedule: Q04DX003 (ip), vehicle: saline with Tween-80 121 % of control

Clc1ccc2c(nnn2OC2CCCC2)c1Cl
inactive: [1] 88 % of control | [2] 94 % of control | [3] 94 % of control

CCN(CC)C1CS(=O)(=O)OC2=C1CCCc1ccccc12 (stereo not given)
inactive: dose: 25.0 mg/kg/injection, schedule: Q01DX009 (ip), vehicle: Klucel (hydroxypropylcellulose) (HPC) 102 % of control | dose: 50.0 mg/kg/injection, schedule: Q01DX009 (ip), vehicle: Klucel (hydroxypropylcellulose) (HPC) 104 % of control | dose: 100.0 mg/kg/injection, schedule: Q01DX009 (ip), vehicle: Klucel (hydroxypropylcellulose) (HPC) 95 % of control

C/C(=N\NC(=S)N1CCCC1)c1cccc(C)n1
inactive: dose: 12.5 mg/kg/injection, schedule: Q01DX005 (ip), vehicle: saline + Tween-80 + alcohol 104 % of control and 106 % of control | dose: 25.0 mg/kg/injection, schedule: Q01DX005 (ip), vehicle: saline + Tween-80 + alcohol 108 % of control and 113 % of control | dose: 50.0 mg/kg/injection, schedule: Q01DX005 (ip), vehicle: saline + Tween-80 + alcohol 122 % of control

COc1ccc2c(n1)c(=NCCCCCCN=c1c3ccc(Cl)cc3n(O)c3ccc(OC)nc13)c1ccc(Cl)cc1n2O
inactive: dose: 100.0 mg/kg/injection, schedule: Q04DX003 (ip), vehicle: Klucel (hydroxypropylcellulose) (HPC) 116 % of control | dose: 200.0 mg/kg/injection, schedule: Q04DX003 (ip), vehicle: Klucel (hydroxypropylcellulose) (HPC) 100 % of control

CCc1ccc[n+](-c2ccncc2CC)c1
inactive: dose: 15.0 mg/kg/injection, schedule: Q01DX005 (ip), vehicle: saline 96 % of control | dose: 30.0 mg/kg/injection, schedule: Q01DX005 (ip), vehicle: saline 100 % of control | dose: 60.0 mg/kg/injection, schedule: Q01DX005 (ip), vehicle: saline 106 % of control and 88 % of control

CCCC[As](CCCC)SC1OC(C2COC(C)(C)O2)C2OC(C)(C)OC12 (stereo not given)
inactive: dose: 0.78 mg/kg/injection, schedule: Q01DX009 (ip), vehicle: water 101 % of control | dose: 1.56 mg/kg/injection, schedule: Q01DX009 (ip), vehicle: water 117 % of control | dose: 3.13 mg/kg/injection, schedule: Q01DX009 (ip), vehicle: distilled water + Tween-80 122 % of control | dose: 3.13 mg/kg/injection, schedule: Q01DX009 (ip), vehicle: water 101 % of control | dose: 6.25 mg/kg/injection, schedule: Q01DX009 (ip), vehicle: distilled water + Tween-80 96 % of control | dose: 6.25 mg/kg/injection, schedule: Q01DX009 (ip), vehicle: water 111 % of control | dose: 12.5 mg/kg/injection, schedule: Q01DX009 (ip), vehicle: distilled water + Tween-80 123 % of control | dose: 25.0 mg/kg/injection, schedule: Q01DX009 (ip), vehicle: distilled water + Tween-80 88 % of control

CC(C)(C)c1cc(C#C[Si](C)(C)C)cc(C(C)(C)C)c1
inactive: dose: 6.25 mg/kg/injection, schedule: Q01DX005 (ip), vehicle: Klucel (hydroxypropylcellulose) (HPC) 98 % of control | dose: 12.5 mg/kg/injection, schedule: Q01DX005 (ip), vehicle: Klucel (hydroxypropylcellulose) (HPC) 101 % of control | dose: 25.0 mg/kg/injection, schedule: Q01DX005 (ip), vehicle: Klucel (hydroxypropylcellulose) (HPC) 92 % of control

CC1=CC(C)=C(C#N)C2=S=C(c3ccccc3)C(=O)N12
inactive: dose: 6.25 mg/kg/injection, schedule: Q01DX005 (ip), vehicle: saline with Tween-80 97 % of control | dose: 12.5 mg/kg/injection, schedule: Q01DX005 (ip), vehicle: saline with Tween-80 94 % of control | dose: 25.0 mg/kg/injection, schedule: Q01DX005 (ip), vehicle: saline with Tween-80 94 % of control | [4] 88 % of control | [5] 88 % of control

COc1nc(N)nc(Cl)n1
inactive: dose: 12.5 mg/kg/injection, schedule: Q01DX009 (ip), vehicle: saline with Tween-80 105 % of control | dose: 25.0 mg/kg/injection, schedule: Q01DX009 (ip), vehicle: saline with Tween-80 107 % of control | [1] 101 % of control | [2] 98 % of control

CCOC(=O)C(CSC(c1ccccc1)(c1ccccc1)c1ccccc1)NC(=O)c1csc(CCNC(=O)c2ccccc2)n1 (stereo not given)
inactive: dose: 4.0 mg/kg/injection, schedule: Q01DX009 (ip), vehicle: other 100 % of control | dose: 8.0 mg/kg/injection, schedule: Q01DX009 (ip), vehicle: other 99 % of control | dose: 16.0 mg/kg/injection, schedule: Q01DX009 (ip), vehicle: other 91 % of control | dose: 32.0 mg/kg/injection, schedule: Q01DX009 (ip), vehicle: other 89 % of control | dose: 62.5 mg/kg/injection, schedule: Q01DX009 (ip), vehicle: other 113 % of control | dose: 64.0 mg/kg/injection, schedule: Q01DX009 (ip), vehicle: other 89 % of control | dose: 125.0 mg/kg/injection, schedule: Q01DX009 (ip), vehicle: other 108 % of control | dose: 250.0 mg/kg/injection, schedule: Q01DX009 (ip), vehicle: other 108 % of control

c1cnc2c(c1)-n1cccc1C1(CCCCC1)NN2
inactive: dose: 100.0 mg/kg/injection, schedule: Q01DX001 (ip), vehicle: saline with Tween-80 108 % of control | dose: 200.0 mg/kg/injection, schedule: Q01DX001 (ip), vehicle: saline with Tween-80 93 % of control | dose: 400.0 mg/kg/injection, schedule: Q01DX001 (ip), vehicle: saline with Tween-80 93 % of control

C/C(=N\OC(=O)c1ccccc1)c1ccccc1
inactive: dose: 100.0 mg/kg/injection, schedule: Q04DX003 (ip), vehicle: saline 102 % of control | dose: 200.0 mg/kg/injection, schedule: Q04DX003 (ip), vehicle: saline 102 % of control | dose: 400.0 mg/kg/injection, schedule: Q04DX003 (ip), vehicle: saline 100 % of control

C/C(=N\N=C(N)N)c1ccc(-c2ccccc2)cc1
inactive: dose: 25.0 mg/kg/injection, schedule: Q04DX002 (ip), vehicle: saline with Tween-80 111 % of control | dose: 50.0 mg/kg/injection, schedule: Q04DX002 (ip), vehicle: saline with Tween-80 109 % of control

Nc1nccc2[nH]ccc12
inactive: dose: 12.5 mg/kg/injection, schedule: Q01DX001 (ip), vehicle: saline 103 % of control | dose: 25.0 mg/kg/injection, schedule: Q01DX001 (ip), vehicle: saline 102 % of control | dose: 50.0 mg/kg/injection, schedule: Q01DX001 (ip), vehicle: saline 112 % of control

CCOC(=O)C(CCCCn1cnc2ncnc(Cl)c21)(NC(C)=O)C(=O)OCC
inactive: dose: 100.0 mg/kg/injection, schedule: Q01DX001 (ip), vehicle: Klucel (hydroxypropylcellulose) (HPC) 105 % of control | dose: 200.0 mg/kg/injection, schedule: Q01DX001 (ip), vehicle: Klucel (hydroxypropylcellulose) (HPC) 107 % of control | dose: 400.0 mg/kg/injection, schedule: Q01DX001 (ip), vehicle: Klucel (hydroxypropylcellulose) (HPC) 102 % of control

CCC(C)(C)NCCCCCNc1cc(OC)cc2cccnc12
inactive: dose: 50.0 mg/kg/injection, schedule: Q01DX005 (ip), vehicle: Klucel (hydroxypropylcellulose) (HPC) 94 % of control | [6] 95 % of control | dose: 100.0 mg/kg/injection, schedule: Q01DX005 (ip), vehicle: Klucel (hydroxypropylcellulose) (HPC) 101 % of control | [4] 95 % of control | [5] 91 % of control

C=CC12CCC(CC1)n1c(=O)n(C)c(=O)n12
inactive: [6] 99 % of control | [4] 103 % of control | [5] 100 % of control
